In patent publication US20110136666A1, “CHEMICAL COMPOUNDS” (SYNGENTA CROP PROTECTION, INC., priority 2008, published 2011) one finds pest or weed control data, which are given here for 2 compounds.

The test system of one test is Alopecurus myosuroides (ALOMY). The experiment in a line: Pre-emergence biological efficacy, glasshouse pot test. Type of test: in vivo. The following applies: 312 h, 250 g/ha, after 13 days, 100=total damage, 0=no damage, read-out: Percentage damage caused to weed species ALOMY. On the procedure: (§1) Seeds of Alopecurus myosuroides (ALOMY), Setaria faberi (SETFA), Echinochloa crus-galli (ECHCG), Solanum nigrum (SOLNI), Amaranthus retroflexus (AMARE) and Ipomea hederaceae (IPOHE) were sown in standard soil in pots. After cultivation for one day under controlled conditions in a glasshouse (at 24/16° C., day/night; 14 hours light; 65% humidity), the plants were sprayed with an aqueous spray solution derived from the formulation of the technical active ingredient in acetone/water (50:50) solution containing 0.5% Tween 20 (polyoxyethylene sorbitan monolaurate, CAS RN 9005-64-5) to give a final dose of 250 or 1000 g/ha of test compound.
(§2) The test plants were then grown under controlled conditions in the glasshouse (at 24/16° C., day/night; 14 hours light; 65% humidity) and watered twice daily. After 13 days the test was evaluated (100=total damage to plant; 0=no damage to plant).
For the compound `COC(=O)c1nc(-c2ncc3ccccn23)nc(N)c1Cl` [Compound 2-146, 4-Amino-5-chloro-2-(imidazo[1,5-a]pyridin-3-yl)-6-methoxycarbonyl pyrimidine], the pest or weed control at 250 g/ha was 0%.

The test is the same for the next values; noted with them: 312 h, 1000 g/ha, after 13 days, 100=total damage, 0=no damage, read-out: Percentage damage caused to weed species ALOMY.
Consider `COC(=O)c1nc(-c2cccnc2)nc(N)c1Cl` [Compound 2-153, 4-Amino-5-chloro-6-methoxycarbonyl-2-pyridin-3-ylpyrimidine], for which the pest or weed control at 1000 g/ha was 0%.

The next test concerns Amaranthus retroflexus (AMARE). Described as above. Format: in vivo. The following applies: 312 h, 250 g/ha, after 13 days, 100=total damage, 0=no damage, read-out: Percentage damage caused to weed species AMARE. As to the method: as §1, §2
Consider `COC(=O)c1nc(-c2ncc3ccccn23)nc(N)c1Cl` [Compound 2-146, 4-Amino-5-chloro-2-(imidazo[1,5-a]pyridin-3-yl)-6-methoxycarbonyl pyrimidine], for which the pest or weed control at 250 g/ha is 0%.

The same test, now with this note: 312 h, 1000 g/ha, after 13 days, 100=total damage, 0=no damage, read-out: Percentage damage caused to weed species AMARE.
Take `COC(=O)c1nc(-c2cccnc2)nc(N)c1Cl` [Compound 2-153, 4-Amino-5-chloro-6-methoxycarbonyl-2-pyridin-3-ylpyrimidine]: the pest or weed control at 1000 g/ha came to 0%.

Another test has as its system Echinochloa crus-galli (ECHCG). The test is described as above. Type of test: in vivo. The following applies: 312 h, 250 g/ha, after 13 days, 100=total damage, 0=no damage, read-out: Percentage damage caused to weed species ECHCG. On the procedure: as §1, §2
Turning to `COC(=O)c1nc(-c2ncc3ccccn23)nc(N)c1Cl` [Compound 2-146, 4-Amino-5-chloro-2-(imidazo[1,5-a]pyridin-3-yl)-6-methoxycarbonyl pyrimidine], the pest or weed control at 250 g/ha is 0%.

Staying with this test, now noted: 312 h, 1000 g/ha, after 13 days, 100=total damage, 0=no damage, read-out: Percentage damage caused to weed species ECHCG.
As for `COC(=O)c1nc(-c2cccnc2)nc(N)c1Cl` [Compound 2-153, 4-Amino-5-chloro-6-methoxycarbonyl-2-pyridin-3-ylpyrimidine], the pest or weed control at 1000 g/ha is 0%.

A further test relates to Ipomea hederaceae (IPOHE). Described as above. Type of test: in vivo. The following applies: Ipomoea hederacea, 312 h, 250 g/ha, after 13 days, 100=total damage, 0=no damage, read-out: Percentage damage caused to weed species IPOHE. As to the method: as §1, §2
On to `COC(=O)c1nc(-c2ncc3ccccn23)nc(N)c1Cl` [Compound 2-146, 4-Amino-5-chloro-2-(imidazo[1,5-a]pyridin-3-yl)-6-methoxycarbonyl pyrimidine], for which the pest or weed control at 250 g/ha came out at 0%.

The same test, now with this note: Ipomoea hederacea, 312 h, 1000 g/ha, after 13 days, 100=total damage, 0=no damage, read-out: Percentage damage caused to weed species IPOHE.
`COC(=O)c1nc(-c2cccnc2)nc(N)c1Cl` [Compound 2-153, 4-Amino-5-chloro-6-methoxycarbonyl-2-pyridin-3-ylpyrimidine]: the pest or weed control at 1000 g/ha amounted to 0%.

In a further test the test system is Setaria faberi (SETFA). The description is as above. Type of test: in vivo. The following applies: 312 h, 250 g/ha, after 13 days, 100=total damage, 0=no damage, read-out: Percentage damage caused to weed species SETFA. On the procedure:
as §1, §2
Regarding `COC(=O)c1nc(-c2ncc3ccccn23)nc(N)c1Cl` [Compound 2-146, 4-Amino-5-chloro-2-(imidazo[1,5-a]pyridin-3-yl)-6-methoxycarbonyl pyrimidine], the pest or weed control at 250 g/ha was 0%.

The test is the same for the next values; noted with them: 312 h, 1000 g/ha, after 13 days, 100=total damage, 0=no damage, read-out: Percentage damage caused to weed species SETFA.
On to `COC(=O)c1nc(-c2cccnc2)nc(N)c1Cl` [Compound 2-153, 4-Amino-5-chloro-6-methoxycarbonyl-2-pyridin-3-ylpyrimidine], for which the pest or weed control at 1000 g/ha was found to be 0%.

For another test, the system named is Solanum nigrum (SOLNI). The test is described as above. Type of test: in vivo. The following applies: 312 h, 250 g/ha, after 13 days, 100=total damage, 0=no damage, read-out: Percentage damage caused to weed species SOLNI. As to the method: as §1, §2
Take `COC(=O)c1nc(-c2ncc3ccccn23)nc(N)c1Cl` [Compound 2-146, 4-Amino-5-chloro-2-(imidazo[1,5-a]pyridin-3-yl)-6-methoxycarbonyl pyrimidine]: the pest or weed control at 250 g/ha was 0%.

The test is the same for the next values; noted with them: 312 h, 1000 g/ha, after 13 days, 100=total damage, 0=no damage, read-out: Percentage damage caused to weed species SOLNI.
Take `COC(=O)c1nc(-c2cccnc2)nc(N)c1Cl` [Compound 2-153, 4-Amino-5-chloro-6-methoxycarbonyl-2-pyridin-3-ylpyrimidine]: the pest or weed control at 1000 g/ha was determined as 0%.

A further test concerns Alopecurus myosuroides (ALOMY). The experiment in a line: Post-emergence biological efficacy, glasshouse pot test. Type of test: in vivo. The following applies: 312 h, 250 g/ha, after 13 days, 100=total damage, 0=no damage, read-out: Percentage damage caused to weed species ALOMY. On the procedure: as §1, with “8 days” for “one day”
(§3) The test plants were then grown on under controlled conditions in a glasshouse (at 24/16° C., day/night; 14 hours light; 65% humidity) and watered twice daily. After 13 days the test was evaluated (100=total damage to plant; 0=no damage to plant).
On to `COC(=O)c1nc(-c2ncc3ccccn23)nc(N)c1Cl` [Compound 2-146, 4-Amino-5-chloro-2-(imidazo[1,5-a]pyridin-3-yl)-6-methoxycarbonyl pyrimidine], for which the pest or weed control at 250 g/ha turned out to be 0%.

The same test, now with this note: 312 h, 1000 g/ha, after 13 days, 100=total damage, 0=no damage, read-out: Percentage damage caused to weed species ALOMY.
Consider `COC(=O)c1nc(-c2cccnc2)nc(N)c1Cl` [Compound 2-153, 4-Amino-5-chloro-6-methoxycarbonyl-2-pyridin-3-ylpyrimidine], for which the pest or weed control at 1000 g/ha is 0%.

A further test concerns Amaranthus retroflexus (AMARE). The test is described as above. The following applies: 312 h, 250 g/ha, after 13 days, 100=total damage, 0=no damage, read-out: Percentage damage caused to weed species AMARE. Type of test: in vivo. On the procedure: as §1, with “8 days” for “one day”
as §3
Consider `COC(=O)c1nc(-c2ncc3ccccn23)nc(N)c1Cl` [Compound 2-146, 4-Amino-5-chloro-2-(imidazo[1,5-a]pyridin-3-yl)-6-methoxycarbonyl pyrimidine], for which the pest or weed control at 250 g/ha came to 30%.

The test is the same for the next values; noted with them: 312 h, 1000 g/ha, after 13 days, 100=total damage, 0=no damage, read-out: Percentage damage caused to weed species AMARE.
With `COC(=O)c1nc(-c2cccnc2)nc(N)c1Cl` [Compound 2-153, 4-Amino-5-chloro-6-methoxycarbonyl-2-pyridin-3-ylpyrimidine], the pest or weed control at 1000 g/ha came out at 0%.

A further test relates to Echinochloa crus-galli (ECHCG). The test is described as above. Format: in vivo. The following applies: 312 h, 250 g/ha, after 13 days, 100=total damage, 0=no damage, read-out: Percentage damage caused to weed species ECHCG. As to the method: as §1, with “8 days” for “one day”
as §3
As for `COC(=O)c1nc(-c2ncc3ccccn23)nc(N)c1Cl` [Compound 2-146, 4-Amino-5-chloro-2-(imidazo[1,5-a]pyridin-3-yl)-6-methoxycarbonyl pyrimidine], the pest or weed control at 250 g/ha worked out at 0%.

Staying with this test, now noted: 312 h, 1000 g/ha, after 13 days, 100=total damage, 0=no damage, read-out: Percentage damage caused to weed species ECHCG.
Regarding `COC(=O)c1nc(-c2cccnc2)nc(N)c1Cl` [Compound 2-153, 4-Amino-5-chloro-6-methoxycarbonyl-2-pyridin-3-ylpyrimidine], the pest or weed control at 1000 g/ha is 0%.

A further test concerns Ipomea hederaceae (IPOHE). The test is described as above. Format: in vivo. The following applies: Ipomoea hederacea, 312 h, 250 g/ha, after 13 days, 100=total damage, 0=no damage, read-out: Percentage damage caused to weed species IPONE. As to the method: as §1, with “8 days” for “one day”
as §3
Consider `COC(=O)c1nc(-c2ncc3ccccn23)nc(N)c1Cl` [Compound 2-146, 4-Amino-5-chloro-2-(imidazo[1,5-a]pyridin-3-yl)-6-methoxycarbonyl pyrimidine], for which the pest or weed control at 250 g/ha was found to be 40%.

Staying with this test, now noted: Ipomoea hederacea, 312 h, 1000 g/ha, after 13 days, 100=total damage, 0=no damage, read-out: Percentage damage caused to weed species IPONE.
Take `COC(=O)c1nc(-c2cccnc2)nc(N)c1Cl` [Compound 2-153, 4-Amino-5-chloro-6-methoxycarbonyl-2-pyridin-3-ylpyrimidine]: the pest or weed control at 1000 g/ha worked out at 0%.

Another test deals with Setaria faberi (SETFA). The description is as above. Type of test: in vivo. The following applies: 312 h, 250 g/ha, after 13 days, 100=total damage, 0=no damage, read-out: Percentage damage caused to weed species SETFA. As to the method:
as §1, with “8 days” for “one day”
as §3
Turning to `COC(=O)c1nc(-c2ncc3ccccn23)nc(N)c1Cl` [Compound 2-146, 4-Amino-5-chloro-2-(imidazo[1,5-a]pyridin-3-yl)-6-methoxycarbonyl pyrimidine], the pest or weed control at 250 g/ha turned out to be 0%.

Staying with this test, now noted: 312 h, 1000 g/ha, after 13 days, 100=total damage, 0=no damage, read-out: Percentage damage caused to weed species SETFA.
As for `COC(=O)c1nc(-c2cccnc2)nc(N)c1Cl` [Compound 2-153, 4-Amino-5-chloro-6-methoxycarbonyl-2-pyridin-3-ylpyrimidine], the pest or weed control at 1000 g/ha came out at 0%.

The test system of a further test is Solanum nigrum (SOLNI). The description is as above. Format: in vivo. The following applies: 312 h, 250 g/ha, after 13 days, 100=total damage, 0=no damage, read-out: Percentage damage caused to weed species SOLNI. As to the method: as §1, with “8 days” for “one day”
as §3
In the case of `COC(=O)c1nc(-c2ncc3ccccn23)nc(N)c1Cl` [Compound 2-146, 4-Amino-5-chloro-2-(imidazo[1,5-a]pyridin-3-yl)-6-methoxycarbonyl pyrimidine], the pest or weed control at 250 g/ha amounted to 30%.

Still in this test, the particulars now being: 312 h, 1000 g/ha, after 13 days, 100=total damage, 0=no damage, read-out: Percentage damage caused to weed species SOLNI.
Turning to `COC(=O)c1nc(-c2cccnc2)nc(N)c1Cl` [Compound 2-153, 4-Amino-5-chloro-6-methoxycarbonyl-2-pyridin-3-ylpyrimidine], the pest or weed control at 1000 g/ha amounted to 0%.
